In general, TGI refers to the concentration giving total growth inhibition. Low readings indicate more potent growth arrest, high ones less potent growth arrest.

Here are results for 17 molecules from PubChem BioAssay (NCI).

Test systems include MOLT-4 leukemia; RPMI-8226 leukemia; RXF 393 renal; SF-539 CNS; SK-MEL-28 melanoma; TK-10 renal; U251 CNS; UACC-257 melanoma; SNB-75 CNS.
Holding throughout (assay): DTP human tumour cell line panel, 48 h

SMILES strings stand for the structures.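 96-well plates; 48 h exposure; 5 concentrations. Endpoints by linear interpolation between flanking doses. Not reached: highest tested concentration assigned. TGI marks complete inhibition of growth.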 Bounds are passed on as bounds.

Consider `O=C1c2ccccc2CN1c1ccc(O)cc1`, for which the TGI in the experiment on MOLT-4 leukemia, in the experiment on RPMI-8226 leukemia, in the experiment on RXF 393 renal, in the experiment with SF-539 CNS, in the experiment on SK-MEL-28 melanoma and in the experiment on TK-10 renal was greater than 100 µM each time. Also, the TGI with U251 CNS and in the experiment on UACC-257 melanoma was greater than 100 µM each time.

On to `CC(=O)OC[C@]1(C(=O)C(O)c2ccoc2)[C@H](C)CC[C@@]23COC(=O)C2=CCC[C@@H]31` (some centres not stated), for which the total growth inhibition concentration (TGI) with MOLT-4 leukemia, with RPMI-8226 leukemia, in the experiment with RXF 393 renal, in the experiment with SF-539 CNS, in the experiment with SNB-75 CNS and in the experiment on TK-10 renal was greater than 10 µM each time. For the same molecule, the TGI in the experiment with U251 CNS and with UACC-257 melanoma was greater than 10 µM each time.

In the case of `O=C1C(c2c(O)[nH]c3ccc(S(=O)(=O)O)cc23)=Nc2ccccc21`, the concentration for total growth inhibition (TGI) in the experiment on MOLT-4 leukemia, in the experiment on RPMI-8226 leukemia, in the experiment with RXF 393 renal, in the experiment on SK-MEL-28 melanoma, in the experiment with SNB-75 CNS and in the experiment with TK-10 renal was greater than 100 µM in each case. In addition, the total growth inhibition concentration (TGI) in the experiment on U251 CNS and in the experiment on UACC-257 melanoma was greater than 100 µM in each case.

Regarding `CC(=O)NS(=O)(=O)c1ccc(NC(=O)c2c3ccccc3nc3ccccc23)cc1`, the TGI in the experiment with MOLT-4 leukemia, in the experiment on RPMI-8226 leukemia, with SF-539 CNS, in the experiment on SK-MEL-28 melanoma, with SNB-75 CNS and in the experiment with TK-10 renal was greater than 100 µM in each case. Moreover, the TGI with U251 CNS and in the experiment on UACC-257 melanoma was greater than 100 µM in each case.

Regarding `COc1ccc(N2C(=O)c3c4c(c5c([nH]c6ncccc65)c3C2=O)CCC(C(C)(C)C)C4)cc1` (configuration not stated), the concentration for total growth inhibition (TGI) is greater than 100 µM with RPMI-8226 leukemia; greater than 100 µM with RXF 393 renal; greater than 100 µM with SF-539 CNS; greater than 100 µM in the experiment with SK-MEL-28 melanoma; 32.8 µM in the experiment on SNB-75 CNS; greater than 100 µM in the experiment on TK-10 renal. Also, the total growth inhibition concentration (TGI) in the experiment on U251 CNS is 98 µM; in the experiment with UACC-257 melanoma, greater than 100 µM.

Take `CC(C)(C)N=c1n(C(C)(C)C)oc(=O)n1C(C)(C)C`: the total growth inhibition concentration (TGI) in the experiment with MOLT-4 leukemia, in the experiment with RXF 393 renal, in the experiment with SF-539 CNS, in the experiment on SK-MEL-28 melanoma, in the experiment with SNB-75 CNS and with TK-10 renal was greater than 100 µM each time. The TGI in the experiment with U251 CNS and with UACC-257 melanoma was greater than 100 µM throughout.

For `CCNC(=O)Nc1ccccn1`, the TGI in the experiment with MOLT-4 leukemia, in the experiment with RXF 393 renal, in the experiment on SF-539 CNS, in the experiment on SK-MEL-28 melanoma, in the experiment with SNB-75 CNS and in the experiment on TK-10 renal was greater than 100 µM in each case. Also, the total growth inhibition concentration (TGI) in the experiment on U251 CNS and in the experiment with UACC-257 melanoma was greater than 100 µM throughout.

For the molecule `COP(=O)(O)/C=C/C(NC(=O)C(Cl)(Cl)Cl)c1ccccc1` (configuration not stated), the TGI with MOLT-4 leukemia, in the experiment with RPMI-8226 leukemia, in the experiment on RXF 393 renal, in the experiment on SK-MEL-28 melanoma, in the experiment on SNB-75 CNS and in the experiment on TK-10 renal was greater than 100 µM in each case. Moreover, the TGI in the experiment on U251 CNS and in the experiment with UACC-257 melanoma was greater than 100 µM each time.

For `COC(=O)c1csnn1`, the TGI with MOLT-4 leukemia, with RPMI-8226 leukemia, in the experiment on SF-539 CNS, in the experiment on SK-MEL-28 melanoma, with TK-10 renal and with U251 CNS was greater than 100 µM in each case. For the same molecule, the total growth inhibition concentration (TGI) in the experiment with UACC-257 melanoma is greater than 100 µM.

`Cc1cc2c(C)cc(=O)[nH]c2cc1N`: the total growth inhibition concentration (TGI) in the experiment on MOLT-4 leukemia, in the experiment on RPMI-8226 leukemia, with RXF 393 renal, with SF-539 CNS, in the experiment on SK-MEL-28 melanoma and in the experiment with SNB-75 CNS was greater than 100 µM throughout. Besides, the TGI with U251 CNS and with UACC-257 melanoma was greater than 100 µM each time.

With `O=C(O)C1CC(c2ccc(F)cc2)=Nc2ccc(F)cc2S1` (configuration not stated), the total growth inhibition concentration (TGI) in the experiment on MOLT-4 leukemia, in the experiment on RPMI-8226 leukemia, in the experiment on RXF 393 renal, in the experiment on SF-539 CNS, in the experiment on SK-MEL-28 melanoma and with SNB-75 CNS was greater than 100 µM each time. Besides, the total growth inhibition concentration (TGI) in the experiment with TK-10 renal and in the experiment on UACC-257 melanoma was greater than 100 µM throughout.

As to `Nc1c2ccccc2nc2c1ccc1ncccc12`, the concentration for total growth inhibition (TGI) was greater than 100 µM in the experiment with MOLT-4 leukemia; 98.4 µM with RXF 393 renal; 49.9 µM in the experiment on SF-539 CNS; greater than 100 µM in the experiment with SK-MEL-28 melanoma; 99.4 µM in the experiment on SNB-75 CNS; greater than 100 µM in the experiment on TK-10 renal. The TGI in the experiment on U251 CNS and in the experiment with UACC-257 melanoma was greater than 100 µM throughout.

As for `Nn1c(CCCCCCCCc2nnc(COc3c(O)ccc4ccccc34)n2N)nnc1COc1c(O)ccc2ccccc12`, the concentration for total growth inhibition (TGI) with MOLT-4 leukemia, in the experiment with RPMI-8226 leukemia, in the experiment with RXF 393 renal, in the experiment with SK-MEL-28 melanoma, in the experiment with SNB-75 CNS and with TK-10 renal was greater than 100 µM each time. In addition, the concentration for total growth inhibition (TGI) with U251 CNS and in the experiment with UACC-257 melanoma was greater than 100 µM throughout.

On to `COc1ccc(Nc2nc3ccc(C(F)(F)F)cc3nc2C(=O)O)cc1OC`, for which the concentration for total growth inhibition (TGI) in the experiment on MOLT-4 leukemia was 43.5 µM; in the experiment with RXF 393 renal it was greater than 100 µM; in the experiment with SK-MEL-28 melanoma, greater than 100 µM; with SNB-75 CNS, 81.5 µM; with U251 CNS, greater than 100 µM; with UACC-257 melanoma, greater than 100 µM.

As to `NC(CSCc1ccccc1)C(=O)O` (configuration not stated), the total growth inhibition concentration (TGI) in the experiment on RPMI-8226 leukemia, with RXF 393 renal, with SK-MEL-28 melanoma, with SNB-75 CNS, in the experiment with TK-10 renal and with U251 CNS was greater than 100 µM throughout. Moreover, the TGI with UACC-257 melanoma is greater than 100 µM.

As for `O=C(CN1CCCCC1)CC(O)(C(F)(F)F)C(F)(F)F`, the concentration for total growth inhibition (TGI) in the experiment with RPMI-8226 leukemia, with RXF 393 renal, in the experiment on SF-539 CNS, in the experiment on SK-MEL-28 melanoma, in the experiment on SNB-75 CNS and in the experiment on TK-10 renal was greater than 100 µM each time. Besides, the TGI in the experiment with U251 CNS and in the experiment on UACC-257 melanoma was greater than 100 µM in each case.

In the case of `N#Cc1nc(-c2cc([N+](=O)[O-])cc([N+](=O)[O-])c2)oc1N`, the concentration for total growth inhibition (TGI) in the experiment with MOLT-4 leukemia, in the experiment on RPMI-8226 leukemia, in the experiment with RXF 393 renal, with SF-539 CNS, with SK-MEL-28 melanoma and in the experiment on SNB-75 CNS was greater than 10 µM in each case. Further, the TGI in the experiment with TK-10 renal and with UACC-257 melanoma was greater than 10 µM in each case.
